The supplement of paper PMC4862054

test system: MDA-MB-468; test: not given; conditions: 72 h
In short: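 Per-plate normalisation used 0.1 % DMSO and a positive kill control. Breast cancer cell lines (20 µl suspension) were seeded into 384-well plates containing compound at 5 concentrations in 10-fold steps across a compound-specific 10,000-fold range, incubated for 72 h, and read first for CellTox Green fluorescence (485/520 nm), then for CellTiter-Glo luminescence. EC50 was fitted from the dose-response curves and censored at the top concentration.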

Row | EC50, CellTiter-Glo [nM] | SMILES
1 | 75.6 | CC(C)C[C@@H](C(=O)N[C@H](C(=O)OC1CCCC1)c1ccccc1)[C@H](O)C(=O)NO [Tosedostat]
2 | 7.82 | COc1cc2/c(=N/c3ccc(Br)cc3F)nc[nH]c2cc1OCC1CCN(C)CC1 [Vandetanib]
3 | 3.73 | COCC[n+]1c2c(n(Cc3cnccn3)c1C)C(=O)c1ccccc1C2=O [YM155]

test system: BT-474; test: drug sensitivity score (DSS), CellTiter-Blue viability (DSS (AUC-based score)); higher = stronger viability inhibition; extreme values may be limits of the assay; conditions: incubation time: 72 h
Description: (§1)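 DSRT with the CellTiter-Blue (resazurin reduction) viability readout, fluorescence 560/590 nm, 72 h incubation. Plates were normalised to DMSO and benzethonium chloride controls. DSS is computed from the area under the fitted dose-response curve (5 or 9 concentrations).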

Row | SMILES | drug sensitivity score
4 | CC(C)C[C@@H](C(=O)N[C@H](C(=O)OC1CCCC1)c1ccccc1)[C@H](O)C(=O)NO [Tosedostat] | 0
5 | COc1cc2/c(=N/c3ccc(Br)cc3F)nc[nH]c2cc1OCC1CCN(C)CC1 [Vandetanib] | 7.12
6 | COCC[n+]1c2c(n(Cc3cnccn3)c1C)C(=O)c1ccccc1C2=O [YM155] | 32.9

test system: BT-549; test: as above; conditions: incubation time: 72 h
Description: as §1

Row | SMILES | drug sensitivity score
7 | CC(C)C[C@@H](C(=O)N[C@H](C(=O)OC1CCCC1)c1ccccc1)[C@H](O)C(=O)NO [Tosedostat] | 11.3
8 | COc1cc2/c(=N/c3ccc(Br)cc3F)nc[nH]c2cc1OCC1CCN(C)CC1 [Vandetanib] | 5.01
9 | COCC[n+]1c2c(n(Cc3cnccn3)c1C)C(=O)c1ccccc1C2=O [YM155] | 26.8

test system: CAL-120; test: as above; conditions: incubation time: 72 h
Description: as §1

Row | SMILES | drug sensitivity score
10 | CC(C)C[C@@H](C(=O)N[C@H](C(=O)OC1CCCC1)c1ccccc1)[C@H](O)C(=O)NO [Tosedostat] | 12.7
11 | COc1cc2/c(=N/c3ccc(Br)cc3F)nc[nH]c2cc1OCC1CCN(C)CC1 [Vandetanib] | 3.15
12 | COCC[n+]1c2c(n(Cc3cnccn3)c1C)C(=O)c1ccccc1C2=O [YM155] | 40.9

test system: CAL-148; test: as above; conditions: incubation time: 72 h
Description: as §1

Row | SMILES | drug sensitivity score
13 | CC(C)C[C@@H](C(=O)N[C@H](C(=O)OC1CCCC1)c1ccccc1)[C@H](O)C(=O)NO [Tosedostat] | 7.49
14 | COc1cc2/c(=N/c3ccc(Br)cc3F)nc[nH]c2cc1OCC1CCN(C)CC1 [Vandetanib] | 0
15 | COCC[n+]1c2c(n(Cc3cnccn3)c1C)C(=O)c1ccccc1C2=O [YM155] | 35.7

test system: CAL-51; test: as above; conditions: incubation time: 72 h
Description: as §1

Row | SMILES | drug sensitivity score
16 | CC(C)C[C@@H](C(=O)N[C@H](C(=O)OC1CCCC1)c1ccccc1)[C@H](O)C(=O)NO [Tosedostat] | 4.1
17 | COc1cc2/c(=N/c3ccc(Br)cc3F)nc[nH]c2cc1OCC1CCN(C)CC1 [Vandetanib] | 6.07
18 | COCC[n+]1c2c(n(Cc3cnccn3)c1C)C(=O)c1ccccc1C2=O [YM155] | 31.9

test system: DU-4475; test: as above; conditions: incubation time: 72 h
Description: as §1

Row | SMILES | drug sensitivity score
19 | CC(C)C[C@@H](C(=O)N[C@H](C(=O)OC1CCCC1)c1ccccc1)[C@H](O)C(=O)NO [Tosedostat] | 13.4
20 | COc1cc2/c(=N/c3ccc(Br)cc3F)nc[nH]c2cc1OCC1CCN(C)CC1 [Vandetanib] | 0
21 | COCC[n+]1c2c(n(Cc3cnccn3)c1C)C(=O)c1ccccc1C2=O [YM155] | 23.3

test system: HCC1143; test: as above; conditions: incubation time: 72 h
Description: as §1

Row | SMILES | drug sensitivity score
22 | CC(C)C[C@@H](C(=O)N[C@H](C(=O)OC1CCCC1)c1ccccc1)[C@H](O)C(=O)NO [Tosedostat] | 7.29
23 | COc1cc2/c(=N/c3ccc(Br)cc3F)nc[nH]c2cc1OCC1CCN(C)CC1 [Vandetanib] | 0.583
24 | COCC[n+]1c2c(n(Cc3cnccn3)c1C)C(=O)c1ccccc1C2=O [YM155] | 30.3

test system: HDQ-P1; test: as above; conditions: incubation time: 72 h
Description: as §1

Row | SMILES | drug sensitivity score
25 | CC(C)C[C@@H](C(=O)N[C@H](C(=O)OC1CCCC1)c1ccccc1)[C@H](O)C(=O)NO [Tosedostat] | 4.23
26 | COc1cc2/c(=N/c3ccc(Br)cc3F)nc[nH]c2cc1OCC1CCN(C)CC1 [Vandetanib] | 14
27 | COCC[n+]1c2c(n(Cc3cnccn3)c1C)C(=O)c1ccccc1C2=O [YM155] | 33.6

test system: Hs578T; test: as above; conditions: incubation time: 72 h
Description: as §1

Row | SMILES | drug sensitivity score
28 | CC(C)C[C@@H](C(=O)N[C@H](C(=O)OC1CCCC1)c1ccccc1)[C@H](O)C(=O)NO [Tosedostat] | 2.31
29 | COc1cc2/c(=N/c3ccc(Br)cc3F)nc[nH]c2cc1OCC1CCN(C)CC1 [Vandetanib] | 3.9
30 | COCC[n+]1c2c(n(Cc3cnccn3)c1C)C(=O)c1ccccc1C2=O [YM155] | 22.6

test system: MDA-MB-231; test: as above; conditions: incubation time: 72 h
Description: as §1

Row | SMILES | drug sensitivity score
31 | CC(C)C[C@@H](C(=O)N[C@H](C(=O)OC1CCCC1)c1ccccc1)[C@H](O)C(=O)NO [Tosedostat] | 12.5
32 | COc1cc2/c(=N/c3ccc(Br)cc3F)nc[nH]c2cc1OCC1CCN(C)CC1 [Vandetanib] | 6.74
33 | COCC[n+]1c2c(n(Cc3cnccn3)c1C)C(=O)c1ccccc1C2=O [YM155] | 40

test system: MDA-MB-436; test: as above; conditions: incubation time: 72 h
Description: as §1

Row | SMILES | drug sensitivity score
34 | CC(C)C[C@@H](C(=O)N[C@H](C(=O)OC1CCCC1)c1ccccc1)[C@H](O)C(=O)NO [Tosedostat] | 1.84
35 | COc1cc2/c(=N/c3ccc(Br)cc3F)nc[nH]c2cc1OCC1CCN(C)CC1 [Vandetanib] | 13
36 | COCC[n+]1c2c(n(Cc3cnccn3)c1C)C(=O)c1ccccc1C2=O [YM155] | 37.9

test system: MDA-MB-468; test: as above; conditions: incubation time: 72 h
Description: as §1

Row | SMILES | drug sensitivity score
37 | CC(C)C[C@@H](C(=O)N[C@H](C(=O)OC1CCCC1)c1ccccc1)[C@H](O)C(=O)NO [Tosedostat] | 13.2
